The values that follow come from patent US9751854B2 (Millennium Pharmaceuticals, Inc., priority 2014, dated 2017).

Some results are limits rather than exact numbers.

The test deals with human VPS34 (Homo sapiens (Human), UniProt Q8NEB9). Nature of the test: Human VPS34 enzyme assay (Adapta TR-FRET ADP detection). The test is classed as biochemical. To be noted: IC50 range class. On the technique in general: Time-resolved FRET reads energy transfer from a long-lived donor to a nearby acceptor.
human VPS34, sequence (Q8NEB9 whole entry): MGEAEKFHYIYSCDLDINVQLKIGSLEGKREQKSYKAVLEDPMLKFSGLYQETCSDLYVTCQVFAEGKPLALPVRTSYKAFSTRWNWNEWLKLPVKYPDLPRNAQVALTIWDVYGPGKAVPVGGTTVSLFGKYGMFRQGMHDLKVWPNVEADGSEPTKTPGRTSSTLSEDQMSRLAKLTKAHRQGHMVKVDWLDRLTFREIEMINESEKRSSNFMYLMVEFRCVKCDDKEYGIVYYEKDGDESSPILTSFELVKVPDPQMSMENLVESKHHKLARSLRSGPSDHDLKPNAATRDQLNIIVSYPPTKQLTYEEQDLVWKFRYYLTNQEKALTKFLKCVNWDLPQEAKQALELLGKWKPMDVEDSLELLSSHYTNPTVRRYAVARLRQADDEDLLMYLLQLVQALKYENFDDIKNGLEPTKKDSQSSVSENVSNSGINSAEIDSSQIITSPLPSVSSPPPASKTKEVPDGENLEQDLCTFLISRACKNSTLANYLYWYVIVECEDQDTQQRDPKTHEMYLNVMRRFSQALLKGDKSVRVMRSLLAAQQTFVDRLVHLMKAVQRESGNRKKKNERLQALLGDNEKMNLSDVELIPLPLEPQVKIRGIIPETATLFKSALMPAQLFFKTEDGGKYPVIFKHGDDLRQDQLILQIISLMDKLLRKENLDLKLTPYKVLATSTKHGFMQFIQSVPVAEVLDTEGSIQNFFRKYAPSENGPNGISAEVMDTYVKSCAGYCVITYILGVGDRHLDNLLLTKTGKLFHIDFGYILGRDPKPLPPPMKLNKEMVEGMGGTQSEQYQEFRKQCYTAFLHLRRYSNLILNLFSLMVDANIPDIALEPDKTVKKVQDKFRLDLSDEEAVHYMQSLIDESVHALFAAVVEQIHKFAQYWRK
As usually defined, the IC50 is the point on the concentration scale where inhibition reaches its midpoint. As to `O=C(c1cncc(-c2ccnc(Nc3ccnc(C4CC4)n3)c2)c1)N1CC(F)(F)C1` [Compound I-413, (2′-[(2-cyclopropylpyrimidin-4-yl)amino]-3,4′-bipyridin-5-yl)(3,3-difluoroazetidin-1-yl)methanone], the IC50 was 10 to 50 nM.
Molecule `CC(=O)Nc1cc(-c2cnc(C)c(NS(=O)(=O)c3ccc(F)cc3F)c2)cc(C)n1` [Compound I-414, N-(5-{[(2,4-difluorophenyl)sulfonyl]amino}-6,6′-dimethyl-3,4′-bipyridin-2′-yl)acetamide] showed an IC50 of 50 to 100 nM.
The value for `Cc1nccc(Nc2cc(-c3cnc(C)c(C(=O)N4CC5(COC5)C4)c3)ccn2)n1` [Compound I-415, {6-methyl-2′-[(2-methylpyrimidin-4-yl)amino]-3,4′-bipyridin-5-yl}(2-oxa-6-azaspiro[3,3]hept-6-yl)methanone] was 10 to 50 nM.
`CC(=O)Nc1cc(-c2cnc(C)c(N3CC=CS3(=O)=O)c2)ccn1` [Compound I-416, N-[5-(1,1-dioxidoisothiazol-2(3H)-yl)-6-methyl-3,4′-bipyridin-2′-yl]acetamide] came in with an IC50 of 10 to 50 nM.
On to `COC(=O)Nc1cc(-c2cnc(C)c(NS(=O)(=O)c3ccc(Cl)cc3F)c2)ccn1` [Compound I-417, methyl (5-{[(4-chloro-2-fluorophenyl)sulfonyl]amino}-6-methyl-3,4′-bipyridin-2′-yl)carbamate], for which the IC50 is under 10 nM.
Then `CC(=O)Nc1cc(-c2cnc(C)c(S(=O)(=O)NC34CC(C3)C4)c2)ccn1` [Compound I-418, N-[5-(bicyclo[1.1.1]pent-1-ylsulfamoyl)-6-methyl-3,4′-bipyridin-2′-yl]acetamide], with 10 to 50 nM; and `CC(=O)Nc1cc(-c2cncc(NC(=O)c3ccc(F)cc3F)c2)ccn1` [Compound I-419, N-(2′-acetamido-3,4′-bipyridin-5-yl)-2,4-difluorobenzamide], with over 100 nM.
With `CC(=O)Nc1cc(-c2cnc3c(c2)S(=O)(=O)N[C@H](c2ccccc2)CO3)ccn1` [Compound I-420, (R)-N-(4-(1,1-dioxido-3-phenyl-3,4-dihydro-2H-pyrido[2,3-b][1,4,5]oxathiazepin-8-yl)pyridin-2-yl)acetamide], the IC50 was over 100 nM.
Take `Cc1nccc(Nc2cc(-c3cncc(C(C)Oc4ccccc4F)c3)ccn2)n1` (stereo not drawn) [Compound I-422, 5-[1-(2-fluorophenoxy)ethyl]-N-(2-methylpyrimidin-4-yl)-3,4′-bipyridin-2′-amine]: the IC50 was in the range of 10 to 50 nM.
The value for `COc1ncc(-c2ccnc(NC(C)=O)c2)cc1C(=O)N(C)c1ccc(F)cc1F` [Compound I-423, 2′-aceramido-N-(2,4-difluorophenyl)-6-methoxy-N-methyl-3,4′-bipyridine-5-carboxamide] was 10 to 50 nM; that for `Cc1nccc(Nc2cc(-c3cnc(C)c(OCCO)c3)ccn2)n1` [Compound I-424, 2-({6-methyl-2′-[(2-methylpyrimidin-4-yl)amino]-3,4′-bipyridin-5-yl}oxy)ethanol] was 10 to 50 nM.
`CC(=O)Nc1cc(-c2cnc(Cl)c(N3CCCS3(=O)=O)c2C)ccn1` [Compound I-425, N-[6-chloro-5-(1,1-dioxidoisothiazolidin-2-yl)-4-methyl-3,4′-bipyridin-2′-yl]acetamide]: the IC50 fell in the range of 10 to 50 nM.
`COc1ncc(-c2ccnc(NC(C)=O)c2)cc1S(=O)(=O)NC1CCC1` [Compound I-426, N-[5-(cyclobutylsulfamoyl)-6-methoxy-3,4′-bipyridin-2′-yl]acetamide] registered an IC50 of 10 to 50 nM.
The value for `CN(C)S(=O)(=O)Nc1cc(-c2ccnc(Nc3ccnc(C4CC4)n3)c2)cn2nccc12` [Compound I-427, N′-(6-{2-[(2-cyclopropylpyrimidin-4-yl)amino]pyridin-4-yl}pyrazolo[1,5-a]pyridin-4-yl)-N,N-dimethylsulfuric diamide] was under 10 nM.
Take `CC(=O)Nc1cc(-c2cc(OS(=O)(=O)N(C)C)c3ccnn3c2)ccn1` [Compound I-428, 6-(2-acetamidopyridin-4-yl)pyrazolo[1,5-a]pyridin-4-yl dimethylsulfamate]: the IC50 was under 10 nM.
In the case of `CC(=O)Nc1cc(-c2cnc(Cl)c(NS(=O)(=O)c3ccc(C#N)cc3)c2C)ccn1` [Compound I-429, N-(6-chloro-5-{[(4-cyanophenyl)sulfonyl]amino}-4-methyl-3,4′-bipyridin-2′-yl)acetamide], the IC50 is 10 to 50 nM.
Molecule `Cc1cnc(NC(=O)C2CC2)cc1-c1cnc(Cl)c(NS(=O)(=O)c2ccc(F)cc2F)c1C` [Compound I-430, N-(6-chloro-5-{[(2,4-difluorophenyl)sulfonyl]amino}-4,5′-dimethyl-3,4′-bipyridin-2′-yl)cyclopropanecarboxamide] registered an IC50 of 10 to 50 nM.
Then `CC(=O)Nc1cc(-c2cnc(C)c(C(=O)Nc3ccc(F)cc3F)c2)ccn1` [Compound I-431, 2′-acetamido-N-(2,4-difluorophenyl)-6-methyl-3,4′-bipyridine-5-carboxamide], with over 100 nM; and `COc1ncc(-c2ccnc(NC(C)=O)c2)cc1S(=O)(=O)Nc1cc(Cl)ccc1Cl` [Compound I-432, N-{5-[(2,5-dichlorophenyl)sulfamoyl]-6-methoxy-3,4′-bipyridin-2′-yl}acetamide], with 10 to 50 nM; and `Cc1ncc(-c2ccnc(NC(=O)C3CC3)c2)cc1NS(=O)(=O)c1ccc(Cl)cc1F` [Compound I-433, N-(5-{[(4-chloro-2-fluorophenyl)sulfonyl]amino}-6-methyl-3,4′-bipyridin-2′-yl)cyclopropanecarboxamide], with 10 to 50 nM.
Then `CC(=O)Nc1cc(-c2cnc(Cl)c(C(=O)N3CCC3)c2)c(C)cn1` [Compound I-434, N-[5-(azetidin-1-ylcarbonyl)-6-chloro-5′-methyl-3,4′-bipyridin-2′-yl]acetamide], with over 100 nM; and `Cc1c(-c2ccnc(Nc3ccnc(C4CC4)n3)c2)cnc(Cl)c1NS(=O)(=O)N(C)C` [Compound I-435, N′-{6-chloro-2′-[(cyclopropylpyrimidin-4-yl)amino]-4-methyl-3,4′-bipyridin-5-yl}-N,N-dimethylsulfuric diamide], with under 10 nM; and `CNc1ncc(-c2ccnc(NC(C)=O)c2)c(C)c1S(=O)(=O)NC(C)(C)C` [Compound I-436], with 50 to 100 nM.
As for `CC(=O)Nc1cc(-c2cnc(Cl)c(NS(=O)(=O)c3cccc4ncccc34)c2C)ccn1` [Compound I-437, N-{6-chloro-4-methyl-5-[(quinolin-5-ylsulfonyl)amino]-3,4′-bipyridin-2′-yl}acetamide], the IC50 was 10 to 50 nM.
On to `CC(=O)Nc1cc(-c2cnc(Cl)c(S(=O)(=O)NC3CCC3)c2)ccn1` [Compound I-438, N-[6-chloro-5-(cyclobutylsulfamoyl)-3,4′-bipyridin-2′-yl]acetamide], for which the IC50 fell in the range of 10 to 50 nM.
Then `Cc1nccc(Nc2cc(-c3cnc(C)c(NC(=O)Nc4ccccc4)c3)ccn2)n1` [Compound I-439, 1-{6-methyl-2′-[(2-methylpyrimidin-4-yl)amino]-3,4′-bipyridin-5-yl}-3-phenylurea], with over 100 nM.
The value for `Cc1nccc(Nc2cc(-c3cncc(OC4CCc5c(F)cccc54)c3)ccn2)n1` (stereo not drawn) [Compound I-440, 5-[(4-fluoro-2,3-dihydro-1H-inden-1-yl)oxy]-N-(2-methylpyrimidin-4-yl)-3,4′-bipyridin-2′-amine] was over 100 nM.
